Results published in patent US20240043420A1, “7-AZAINDOLE COMPOUNDS FOR INHIBITION OF BCR-ABL TYROSINE KINASES” (EnLiven Therapeutics, Inc., priority 2020, published 2024).

Legend:
K562 cells = test: K562 cell proliferation assay (CellTiter-Glo); assay type: cell-based; settings: Homo sapiens, K562, 72 h, CellTiter-Glo viability, read-out: Cell Line (IC50, nM) K562
Procedure: (§1) K562 and HL60 cells, cultured in Iscove's Modified Dulbecco's Media (IMDM) supplemented with 10% FBS, were harvested at 50-80% confluency and plated at 2,000 cells per well (K562) or 1,500 cells per well (HL60) in 384-well tissue culture plates. A subset of wells contained media only (low control, LC). Compounds were serially diluted in DMSO. 40 nL of compound or DMSO only (high control, HC) were added to each well using an Echo 550 liquid handler (Labcyte). The plates were placed in a 37° C. incubator with 5% CO2 for 72 hours. Cell viability was measured using a CellTiter-Glo luminescent cell viability assay (Promega), which allows for relative quantification of metabolically active cells by luminescence-based measurements of intracellular ATP concentrations. Briefly, plates were removed from the incubator and equilibrated for 15 minutes at room temperature prior to the addition of 40 μL of CellTiter-Glo reagent. Plates were then incubated for 30 minutes at room temperature. Luminescence was measured using an EnSpire plate reader (Perkin Elmer). As noted above, luminescence values from wells with DMSO only or media without cells were used as high and low controls (HC and LC), respectively. Normalized percent viability was calculated as follows: percent viability=100×(Lumsample−LumLC)/(LumHC−LumLC).

HL60 cells = test: HL60 cell proliferation assay (CellTiter-Glo); assay type: cell-based; settings: Homo sapiens, HL-60, 72 h, CellTiter-Glo viability, read-out: Cell Line (IC50, nM) HL60
Procedure: as §1

ABL1 = target: T1, ABL1 (Homo sapiens, UniProt P00519); test: Luminescence-based ABL kinase assay (ADP-Glo, 300 μM ATP); assay type: biochemical
T1 construct: purchased Carna Biosciences
Outline: (§2)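 Buffer: 50 mM HEPES pH 7.5, 10 mM MgCl2, 1 mM EGTA, 2 mM DTT, 0.05% BSA. Compound preincubated 30 min at RT with kinase (3.325 nM in enzyme solution), then started with a Peptide 2 (6 μM) and ATP (1.2 mM) solution, both stock levels; 90 min at RT.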

ABL1 (T315I) = ABL1 (T315I) (Homo sapiens, UniProt P00519, T315I); test: Luminescence-based ABL kinase assay (ADP-Glo, 300 μM ATP), T315I mutant; assay type: biochemical
Outline: as §2

| SMILES | IC50 (K562 cells) [nM] | IC50 (HL60 cells) [nM] | IC50 (ABL1) [nM] | IC50 (ABL1 (T315I)) [nM] |
| --- | --- | --- | --- | --- |
| COc1c(-c2c[nH]c3nc(NC(=O)[C@@H]4C[C@@H]4F)ccc23)ccc2cn[nH]c12 [Compound 81, (1S,2S)-2-fluoro-N-(3-(7-methoxy-1H-indazol-6-yl)-1H-pyrrolo[2,3-b]pyridin-6-yl)cyclopropane-1-carboxamide] | 96.2 | > 10000 | 12.2 | 12.9 |
| COc1nc2[nH]cnc2cc1-c1c[nH]c2nc(NC(=O)[C@@H]3C[C@@H]3F)ccc12 [Compound 83, (1S,2S)-2-fluoro-N-(3-[5-methoxy-3H-imidazo[4,5-b]pyridin-6-yl]-1H-pyrrolo[2,3-b]pyridin-6-yl)cyclopropane-1-carboxamide] | 48.8 | > 10000 | 1.52 | 1.74 |
| COc1cc2sncc2cc1-c1c[nH]c2nc(NC(=O)[C@@H]3C[C@@H]3F)ccc12 [Compound 84, (1S,2S)-2-fluoro-N-[3-(6-methoxy-1,2-benzothiazol-5-yl)-1H-pyrrolo[2,3-b]pyridin-6-yl]cyclopropane-1-carboxamide] | 150 | > 10000 | 37 | 14.9 |
| COc1cc2scnc2cc1-c1c[nH]c2nc(NC(=O)[C@@H]3C[C@@H]3F)ccc12 [Compound 85, (1S,2S)-2-fluoro-N-[3-(6-methoxy-1,3-benzothiazol-5-yl)-1H-pyrrolo[2,3-b]pyridin-6-yl]cyclopropane-1-carboxamide] | 46 | 7250 | 5.34 | 27.8 |
| COc1cc2ncoc2cc1-c1c[nH]c2nc(NC(=O)[C@@H]3C[C@@H]3F)ccc12 [Compound 87, (1S,2S)-2-fluoro-N-(3-(5-methoxybenzo[d]oxazol-6-yl)-1H-pyrrolo[2,3-b]pyridin-6-yl)cyclopropane-1-carboxamide] | 94.1 | > 10000 | 9.54 | 6.59 |
| COc1cc2ocnc2cc1-c1c[nH]c2nc(NC(=O)[C@@H]3C[C@@H]3F)ccc12 [Compound 88, (1S,2S)-2-fluoro-N-(3-(6-methoxybenzo[d]oxazol-5-yl)-1H-pyrrolo[2,3-b]pyridin-6-yl)cyclopropane-1-carboxamide] | 84.1 | > 10000 | 18.6 | 30.9 |
| COc1c(-c2n[nH]c3nc(NC(=O)[C@@H]4C[C@@H]4F)ccc23)ccc2[nH]cnc12 [Compound 90, (1S,2S)-2-fluoro-N-[3-(4-methoxy-1H-1,3-benzodiazol-5-yl)-1H-pyrazolo[3,4-b]pyridin-6-yl]cyclopropane-1-carboxamide] | 1100 | > 10000 | 21.7 | 15 |

Continued, values first:

| IC50 (K562 cells) [nM] | IC50 (HL60 cells) [nM] | IC50 (ABL1) [nM] | IC50 (ABL1 (T315I)) [nM] | SMILES |
| --- | --- | --- | --- | --- |
| 1080 | > 10000 | 166 | 24.6 | COc1ccccc1-c1c[nH]c2nc(NC(=O)[C@H]3C[C@H]3CO)ccc12 [Compound 91, (1S,2R)-2-(hydroxymethyl)-N-[3-(2-methoxyphenyl)-1H-pyrrolo[2,3-b]pyridin-6-yl]cyclopropane-1-carboxamide] |
| 248 | > 10000 | 39.4 | 27.3 | COc1ncc(F)cc1-c1c[nH]c2nc(NC(=O)[C@@H]3C[C@@H]3F)ccc12 [Compound 92, (1S,2S)-2-fluoro-N-[3-(5-fluoro-2-methoxypyridin-3-yl)-1H-pyrrolo[2,3-b]pyridin-6-yl]cyclopropane-1-carboxamide] |
| 55.6 | 7580 | 10.8 | 6.36 | O=C(Nc1ccc2c(-c3ccccc3OC3CC3)n[nH]c2n1)[C@@H]1C[C@@H]1F [Compound 94, (1S,2S)—N-(3-(2-cyclopropoxyphenyl)-1H-pyrazolo[3,4-b]pyridin-6-yl)-2-fluorocyclopropane-1-carboxamide] |
| 862 | > 10000 | 8.87 | 8.93 | COc1cc2[nH]nnc2cc1-c1c[nH]c2nc(NC(=O)[C@@H]3C[C@@H]3F)ccc12 [Compound 96, (1S,2S)-2-fluoro-N-[3-(6-methoxy-1H-1,2,3-benzotriazol-5-yl)-1H-pyrrolo[2,3-b]pyridin-6-yl]cyclopropane-1-carboxamide] |
